Assay results: patent publication US20040076968A1, “Method for detecting pre-disposition to hepatotoxicity” (priority 2000, published 2004)

Test system: UGT1A7 gene
Assay: Association of UGT1A7 polymorphisms with liver function abnormality in tolcapone-treated patients (case-control genotyping)
Assay type: in vivo, human
Text: Disease severity had already been controlled for by the original study inclusion criteria.
For all other single nucleotide polymorphisms (SNPs) discovery and genotyping was done by double-stranded DNA sequencing using an ABI capillary sequencer and Big Dye chemistry (ABI). The primers used to amplify all exons are shown below and were also used as sequencing primers. Publicly available genomic sequences were used as references for primer design. All polymorphisms were targeted with these pairs-of-primer sets:
Fourty nanograms of genomic DNA were PCR-amplified in 50 μl reactions using an automated PCR machine. Reaction conditions varied as follows. For the amplification of the UGT1A6-fragment conditions were as follows: 10 mM Tris pH 8.3, 50 mM KCl, 1.5 mM MgCl2, 0.2 mM of each dNTP, 0.4 μM of each primer and 1.5U Boehringer Taq Polymerase. The thermocycling protocol consisted of an initial incubation of 95° C. for 15 min. followed by 35 cycles of 94° C. for 1 min., 57° C. for 30 sec., 72° C. for 1 min., and one final extension step of 72° C. for 10 min. The UGT1A7-1 fragment was amplified using Qiagen PCR buffer with 1.5 mM MgCl2, 0.2 mM of each dNTP, 0.4 μM of each primer and 1.5U Boehringer Taq Polymerase. The thermocycling protocol was the same as for UGT1A6-fragment with one exception: the annealing temperature was 61° C. For UGT1A7-2 fragment PCR conditions were as follows: 150 mM Tris pH 8.5, 15 mM (NH4)2SO4, 3.5 mM MgCl2, 0.2 mM of each dNTP, 0.4 μM of each primer and 1.5U Qiagen Hot Start Taq Polymerase. Thermocycling was done using a touch-down PCR protocol. After an iniatial amplification of 95° C. for 10 min. followed 5 cycles of 95° C. for 1 min., 62° C. for 30 sec. (minus 0.5° C. per cycle), 72° C. for 1 min and thirty cycles of 95° C. for 1 min., 60° C. for 30 sec., 72° C. for 1 min. and a final extension step of 72° C. for 10 min. After PCR amplification fragments were purified using the Qiaquick PCR purification kit on a Biorobot 9600. Cycle sequencing was performed on an automated PCR machine using ABI Big Dye terminator chemistry according to the manufacturer's intruction with the following changes: 2.5-5 ng/100 bp of PCR product were mixed with 2 μl Big Dye terminatior mix, oligonucleotide primer concentration was 10 pmol, if necessary 5% DMSO was added to the reaction; the final reaction volume was 10 μl. Sequencing reactions were subjected to 28 cycles at 93° C. for 30 sec, 48° C. for 30 sec, and 58° C. for 120 sec., followed by an ethanol/NaOAc precipitation. After decanting the ethanol, samples were evaporated to dryness using a SpeedVac for 2 min. and were resuspended in 45 μl ultrapure water (MERCK, HPLC grade). […] were loaded on an ABI 3700 capillary sequencer using POP5 as a polymer. After sequencing, the polymorphism analyses were done using Polyphred software (licenced from University of Washington).
The patient samples were divided into two groups.
For each genotype, the following analyses were performed:
a) Analysis of the entire genotype: patients were classified according to the following three categories: homozygous 1/1 (two copies of allele 1 and no copies of allele 2), heterozygous 1/2 (one copy of allele 1 and one copy of allele 2) or homozygous 2/2 (no copies of allele 1 and two copies of allele 2). Analysis was conducted to assess whether there were differences in the proportion of case patients in each of these groups, compared with the proportion of control patients. The Cochran-Maentel-Hanszel (CMH) test was applied to the data presented in a 2-by-3 table (the two columns indicating presence or absence of liver function abnormality and the three rows indicating the three categories of the genotype).

In the case of Cc1ccc(C(=O)c2cc(O)c(O)c([N+](=O)[O-])c2)cc1 [tolcapone], the “n (%) of patients” value (UGT1A7_197 C/G, Allele A Absent, Liver Function Abnormality Absent) was 125 (46.5%), the “n (%) of patients” value (UGT1A7_197 C/G, Allele A Absent, Liver Function Abnormality Present) was 46 (34.6%) and the “n (%) of patients” value (UGT1A7_197 C/G, Allele A Present, Liver Function Abnormality Absent) was 144 (53.5%). For the same compound, the “n (%) of patients” value (UGT1A7_197 C/G, Allele A Present, Liver Function Abnormality Present) was 87 (65.4%), the “n (%) of patients” value (UGT1A7_197 C/G, Allele C Absent, Liver Function Abnormality Absent) was 32 (11.9%) and the “n (%) of patients” value (UGT1A7_197 C/G, Allele C Absent, Liver Function Abnormality Present) was 25 (18.8%). The “n (%) of patients” value (UGT1A7_197 C/G, Allele C Present, Liver Function Abnormality Absent) was 237 (88.1%), the “n (%) of patients” value (UGT1A7_197 C/G, Allele C Present, Liver Function Abnormality Present) was 108 (81.2%) and the “n (%) of patients” value (UGT1A7_197 C/G, Genotype Heterozygous A/C, Liver Function Abnormality Absent) was 112 (41.6%). The “n (%) of patients” value (UGT1A7_197 C/G, Genotype Heterozygous A/C, Liver Function Abnormality Present) was 62 (46.6%), the “n (%) of patients” value (UGT1A7_197 C/G, Genotype Homozygous A/A, Liver Function Abnormality Absent) was 32 (11.9%) and the “n (%) of patients” value (UGT1A7_197 C/G, Genotype Homozygous A/A, Liver Function Abnormality Present) was 25 (18.8%). For the same compound, the “n (%) of patients” value (UGT1A7_197 C/G, Genotype Homozygous C/C, Liver Function Abnormality Absent) was 125 (46.5%), the “n (%) of patients” value (UGT1A7_197 C/G, Genotype Homozygous C/C, Liver Function Abnormality Present) was 46 (34.6%) and the “n (%) of patients” value (UGT1A7_551 Asn129Lys, Allele G Absent, Liver Function Abnormality Absent) was 49 (18.2%). The “n (%) of patients” value (UGT1A7_551 Asn129Lys, Allele G Absent, Liver Function Abnormality Present) was 14 (10.6%), the “n (%) of patients” value (UGT1A7_551 Asn129Lys, Allele G Present, Liver Function Abnormality Absent) was 220 (81.8%) and the “n (%) of patients” value (UGT1A7_551 Asn129Lys, Allele G Present, Liver Function Abnormality Present) was 118 (89.4%). The “n (%) of patients” value (UGT1A7_551 Asn129Lys, Allele T Absent, Liver Function Abnormality Absent) was 96 (35.7%), the “n (%) of patients” value (UGT1A7_551 Asn129Lys, Allele T Absent, Liver Function Abnormality Present) was 59 (44.7%) and the “n (%) of patients” value (UGT1A7_551 Asn129Lys, Allele T Present, Liver Function Abnormality Absent) was 173 (64.3%). For the same compound, the “n (%) of patients” value (UGT1A7_551 Asn129Lys, Genotype Heterozygous G/T, Liver Function Abnormality Absent) was 124 (46.1%), the “n (%) of patients” value (UGT1A7_551 Asn129Lys, Genotype Heterozygous G/T, Liver Function Abnormality Present) was 59 (44.7%) and the “n (%) of patients” value (UGT1A7_551 Asn129Lys, Genotype Homozygous G/G, Liver Function Abnormality Absent) was 96 (35.7%). For the same compound, the “n (%) of patients” value (UGT1A7_551 Asn129Lys, Genotype Homozygous G/G, Liver Function Abnormality Present) was 59 (44.7%), the “n (%) of patients” value (UGT1A7_551 Asn129Lys, Genotype Homozygous T/T, Liver Function Abnormality Absent) was 49 (18.2%) and the “n (%) of patients” value (UGT1A7_551 Asn129Lys, Genotype Homozygous T/T, Liver Function Abnormality Present) was 14 (10.6%). The “n (%) of patients” value (UGT1A7_555 silent or Arg131Lys, Allele A Absent, Liver Function Abnormality Absent) was 49 (18.2%), the “n (%) of patients” value (UGT1A7_555 silent or Arg131Lys, Allele A Absent, Liver Function Abnormality Present) was 14 (10.6%) and the “n (%) of patients” value (UGT1A7_555 silent or Arg131Lys, Allele A Present, Liver Function Abnormality Absent) was 220 (81.8%). The “n (%) of patients” value (UGT1A7_555 silent or Arg131Lys, Allele A Present, Liver Function Abnormality Present) was 118 (89.4%), the “n (%) of patients” value (UGT1A7_555 silent or Arg131Lys, Allele C Absent, Liver Function Abnormality Absent) was 96 (35.7%) and the “n (%) of patients” value (UGT1A7_555 silent or Arg131Lys, Allele C Absent, Liver Function Abnormality Present) was 58 (43.9%). For the same compound, the “n (%) of patients” value (UGT1A7_555 silent or Arg131Lys, Allele C Present, Liver Function Abnormality Absent) was 173 (64.3%) and the “n (%) of patients” value (UGT1A7_555 silent or Arg131Lys, Allele C Present, Liver Function Abnormality Present) was 74 (56.1%).
